According to US8846949B2, “Pyrrolopyrazoles as N-type calcium channel blockers” (Janssen Pharmaceutica NV, priority 2012, dated 2014):
pIC50: −log10 of the molar value. Read-outs that look alike come from different tables or passages of the source. Each block holds one molecule with its values, some of them ahead of it.

Columns and labels:
[1] = target: T1, N-type calcium channel (Homo sapiens, UniProt Q00975); assay: Automated electrophysiology assay (QPatch-HT whole-cell patch clamp); assay type: cell-based
T1 construct: expressed in transfected cells
T1 sequence (Q00975 whole entry): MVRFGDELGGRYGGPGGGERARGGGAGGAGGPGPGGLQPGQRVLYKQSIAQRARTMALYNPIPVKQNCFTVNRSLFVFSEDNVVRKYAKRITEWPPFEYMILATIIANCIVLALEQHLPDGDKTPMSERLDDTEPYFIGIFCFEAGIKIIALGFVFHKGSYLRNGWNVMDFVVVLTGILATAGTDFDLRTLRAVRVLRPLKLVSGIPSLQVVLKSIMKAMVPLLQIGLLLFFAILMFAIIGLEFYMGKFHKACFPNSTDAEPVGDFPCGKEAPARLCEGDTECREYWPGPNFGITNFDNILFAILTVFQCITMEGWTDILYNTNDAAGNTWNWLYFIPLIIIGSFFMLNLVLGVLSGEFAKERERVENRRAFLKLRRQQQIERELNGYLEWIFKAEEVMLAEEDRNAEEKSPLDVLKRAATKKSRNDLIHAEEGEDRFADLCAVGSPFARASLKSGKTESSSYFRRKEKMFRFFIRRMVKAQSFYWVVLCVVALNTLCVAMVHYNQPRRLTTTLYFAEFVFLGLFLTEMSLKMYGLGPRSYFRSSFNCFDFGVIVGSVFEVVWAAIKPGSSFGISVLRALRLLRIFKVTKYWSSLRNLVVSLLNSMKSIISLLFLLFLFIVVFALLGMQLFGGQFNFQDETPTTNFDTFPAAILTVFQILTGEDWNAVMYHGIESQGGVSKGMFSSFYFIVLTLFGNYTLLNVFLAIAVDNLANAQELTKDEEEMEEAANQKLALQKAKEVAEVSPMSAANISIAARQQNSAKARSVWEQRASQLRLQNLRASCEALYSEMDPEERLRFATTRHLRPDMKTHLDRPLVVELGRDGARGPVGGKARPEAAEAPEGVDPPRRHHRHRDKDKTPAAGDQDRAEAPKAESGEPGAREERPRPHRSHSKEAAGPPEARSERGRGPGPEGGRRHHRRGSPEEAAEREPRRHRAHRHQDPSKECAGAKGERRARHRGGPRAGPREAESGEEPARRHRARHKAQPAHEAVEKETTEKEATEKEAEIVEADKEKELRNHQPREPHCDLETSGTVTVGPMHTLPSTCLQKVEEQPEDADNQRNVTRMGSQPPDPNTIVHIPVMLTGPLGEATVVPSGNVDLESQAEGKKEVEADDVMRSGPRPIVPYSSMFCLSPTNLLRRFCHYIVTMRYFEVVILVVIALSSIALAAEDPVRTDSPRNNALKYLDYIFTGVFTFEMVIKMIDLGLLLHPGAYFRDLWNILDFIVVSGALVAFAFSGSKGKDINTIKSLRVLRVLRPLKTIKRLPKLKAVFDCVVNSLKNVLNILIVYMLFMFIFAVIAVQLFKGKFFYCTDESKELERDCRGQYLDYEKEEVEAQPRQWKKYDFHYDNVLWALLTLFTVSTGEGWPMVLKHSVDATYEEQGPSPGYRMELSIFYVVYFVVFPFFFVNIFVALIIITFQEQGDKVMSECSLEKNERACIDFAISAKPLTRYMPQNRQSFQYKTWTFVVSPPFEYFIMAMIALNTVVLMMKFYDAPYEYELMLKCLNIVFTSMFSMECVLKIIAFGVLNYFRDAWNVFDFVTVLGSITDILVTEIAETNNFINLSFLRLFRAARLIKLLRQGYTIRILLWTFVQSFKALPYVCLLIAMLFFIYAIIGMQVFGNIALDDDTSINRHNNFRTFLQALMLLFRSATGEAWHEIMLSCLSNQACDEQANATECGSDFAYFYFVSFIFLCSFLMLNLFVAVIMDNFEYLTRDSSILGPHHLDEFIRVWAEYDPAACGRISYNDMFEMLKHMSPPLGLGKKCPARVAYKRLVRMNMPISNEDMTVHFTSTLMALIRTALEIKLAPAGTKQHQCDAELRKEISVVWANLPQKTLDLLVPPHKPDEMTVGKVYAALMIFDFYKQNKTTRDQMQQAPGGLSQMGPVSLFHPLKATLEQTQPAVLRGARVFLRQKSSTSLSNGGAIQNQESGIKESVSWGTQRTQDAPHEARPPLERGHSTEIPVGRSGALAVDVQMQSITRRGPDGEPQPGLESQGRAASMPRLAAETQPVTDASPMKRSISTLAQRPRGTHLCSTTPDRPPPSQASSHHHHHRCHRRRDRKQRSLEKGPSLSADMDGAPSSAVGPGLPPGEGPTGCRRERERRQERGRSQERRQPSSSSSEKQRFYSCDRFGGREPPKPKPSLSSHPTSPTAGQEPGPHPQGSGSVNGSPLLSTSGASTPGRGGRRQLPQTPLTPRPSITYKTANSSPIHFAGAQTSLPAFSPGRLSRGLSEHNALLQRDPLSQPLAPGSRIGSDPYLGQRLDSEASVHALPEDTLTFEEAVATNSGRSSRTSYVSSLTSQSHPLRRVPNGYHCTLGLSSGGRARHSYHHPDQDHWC
T1 sequence (P54284 whole entry partner): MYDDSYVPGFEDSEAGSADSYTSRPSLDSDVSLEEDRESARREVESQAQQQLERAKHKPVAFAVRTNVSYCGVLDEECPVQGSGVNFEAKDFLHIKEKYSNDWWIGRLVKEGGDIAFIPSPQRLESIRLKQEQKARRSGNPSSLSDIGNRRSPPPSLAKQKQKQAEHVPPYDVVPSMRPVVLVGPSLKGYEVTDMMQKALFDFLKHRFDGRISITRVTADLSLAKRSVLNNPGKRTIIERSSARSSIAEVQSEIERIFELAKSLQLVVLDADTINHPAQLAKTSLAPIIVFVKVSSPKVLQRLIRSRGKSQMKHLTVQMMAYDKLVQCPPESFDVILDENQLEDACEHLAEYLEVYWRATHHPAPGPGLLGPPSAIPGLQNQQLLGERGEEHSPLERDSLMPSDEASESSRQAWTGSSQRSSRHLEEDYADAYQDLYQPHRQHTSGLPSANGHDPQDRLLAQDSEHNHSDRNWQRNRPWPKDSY
T1 sequence (P54289 25-956 partner limits assumed): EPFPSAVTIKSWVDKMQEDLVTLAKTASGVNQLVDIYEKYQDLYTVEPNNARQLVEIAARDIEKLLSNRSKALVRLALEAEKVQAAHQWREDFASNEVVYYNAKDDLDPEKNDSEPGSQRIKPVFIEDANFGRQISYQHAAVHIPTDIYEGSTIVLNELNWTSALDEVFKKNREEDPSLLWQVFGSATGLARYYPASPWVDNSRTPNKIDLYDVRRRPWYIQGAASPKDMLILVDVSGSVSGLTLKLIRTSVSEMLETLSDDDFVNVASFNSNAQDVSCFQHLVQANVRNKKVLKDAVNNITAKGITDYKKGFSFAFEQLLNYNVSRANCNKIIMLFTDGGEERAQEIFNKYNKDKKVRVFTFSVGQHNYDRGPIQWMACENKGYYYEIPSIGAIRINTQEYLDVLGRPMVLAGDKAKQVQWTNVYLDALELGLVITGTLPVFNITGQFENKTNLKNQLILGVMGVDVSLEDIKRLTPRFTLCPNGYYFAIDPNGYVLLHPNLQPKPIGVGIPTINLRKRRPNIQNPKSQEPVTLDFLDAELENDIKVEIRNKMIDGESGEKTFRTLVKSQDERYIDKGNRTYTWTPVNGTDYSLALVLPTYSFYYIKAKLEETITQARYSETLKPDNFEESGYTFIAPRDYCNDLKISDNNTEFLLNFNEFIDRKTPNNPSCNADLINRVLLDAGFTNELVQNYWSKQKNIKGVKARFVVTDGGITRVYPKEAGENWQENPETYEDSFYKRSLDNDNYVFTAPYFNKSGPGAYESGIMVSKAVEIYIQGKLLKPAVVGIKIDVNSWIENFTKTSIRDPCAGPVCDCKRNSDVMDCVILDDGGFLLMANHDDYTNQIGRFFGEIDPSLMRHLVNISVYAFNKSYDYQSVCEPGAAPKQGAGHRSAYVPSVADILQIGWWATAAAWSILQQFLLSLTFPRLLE
T1 sequence (P54289 957-1103 partner limits assumed): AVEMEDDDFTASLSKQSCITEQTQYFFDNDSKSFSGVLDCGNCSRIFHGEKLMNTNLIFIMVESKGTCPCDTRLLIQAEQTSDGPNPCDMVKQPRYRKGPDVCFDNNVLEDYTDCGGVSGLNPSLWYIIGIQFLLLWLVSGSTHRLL
Method: Cells were grown in T175 flasks to 50%-90% confluence. At the time of use, cells were enzymatically treated with Detachin (Genlantis, San Diego, Calif. USA), centrifuged, rinsed, and resuspended in 293 SFM II media (Life Technologies, Grand Island, N.Y. U.S.A.) supplemented with 25 mM HEPES (Sigma-Aldrich, St. Louis, Mo. U.S.A.) to a concentration of 2-3×10^6 cells/mL. Cells were added to the automated cell preparation station on the QPatch-HT (Sophion Biosciences, North Brunswick, N.J. U.S.A.), and following a 10- to 30-min recovery period with gentle stirring, the assay protocol was initiated. During the automated cell preparation, cells were collected, centrifuged and resuspended in an extracellular (EC) solution containing 132 mM NaCl, 1.8 mM CaCl2, 5.4 mM KCl, 0.8 mM MgCl2, 10 mM glucose, and 10 mM HEPES (pH=7.4), adjusted with sucrose to approximately 315 m0sm. The QPlate was primed with an intracellular solution containing 135 mM CsCl, 10 mM EGTA, 4 MgATP, 0.3 NaGTP, and 20 mM HEPES (pH=7.2), adjusted to approximately 290 m0sm with deionized water and the EC solution. Cells were added to the prepared QPlate wells by robotic pipettes of the QPatch-HT.
For cells determined to be in stable whole-cell patch clamp, the EC solution was replaced with a barium (Ba)/triethylammonium (TEA) solution containing 140 mM TEA-Cl, 10 mM BaCl2, 0.8 mM MgCl2, 10 mM glucose and 10 mM HEPES (pH=7.4). High (40 mM) BaCl2 concentrations were made with adjustments to TEA-C1 (90 mM) to maintain the osmolarity. From a resting potential of −80 mV, a train of depolarizing pulses (15 pulses at 5 Hz, +20 mV) was delivered to the cell once every 30 sec for eight trains (4 min total), and the resulting currents were measured during a control period (no compound). This protocol was repeated for each subsequent addition of control buffer with or without compound (three periods total, each with four trains). The current generated in the 1st and 15th pulses of the last train of each period in the presence of each drug concentration was normalized to the current generated during the control period at the respective pulses (representing low- and high-frequency stimulation, respectively). Data from both the second and third drug application periods were analyzed for each cell. A final addition of Ba/TEA solution containing 60-100 μM CdCl2 was made to block all N-type current and to “zero” the currents for each cell. All buffer/compound additions were made using a “spitting” feature of the QPatch-HT, which added three repetitions of 5 μL solution at the beginning of each recording period.
To examine closed-state inactivation, cells were subjected to a channel-activating 50-msec depolarizing step pulse from −80 to +10 mV, followed by a 5-sec nonactivating step to voltages ranging from −130 to −60 mV in 10 mV increments and then a 50-ms step from −80 to +10 mV to assess the remaining current. Currents from the activating voltage pulse were normalized to the peak value of the test pulse following the −130 mV step and fit to a Boltzman equation to obtain the V1/2. Roscovitine (Sigma-Aldrich) was prepared as a 100 mM stock in dimethyl sulfoxide and diluted to the indicated working concentrations. […]. Compounds of Formula (I) were diluted first into dimethyl sulfoxide and then into 10% pluronic F-127 in water (Life Technologies), sonicated for 1 min and diluted into EC buffer. Vehicle controls were run in parallel in all experiments.
Unless otherwise indicated, statistics for comparing among electrophysiological results utilized a one-way analysis of variance with Fisher's least squares determination test for pair-wise comparison.

[2] = target: T2, N-type calcium channel α1B (Cav2.2), β3 and α2δ subunits (Homo sapiens, UniProt Q00975); assay: Functional assay, antagonism of N-type calcium channel (FDSS calcium mobilization response to KCl depolarization); assay type: cell-based; details: for pIC50: HEK stable cell line, 50 mM KCl depolarization, six-point concentration-response; for inhibition at 0.33 µM: 0.33 μM compound, FDSS, 50 mM KCl
T2 construct: expressed in transfected cells
T2 sequence (Q00975 whole entry): as the sequence (Q00975 whole entry) above
T2 sequence (P54284 whole entry partner): as the sequence (P54284 whole entry partner) above
T2 sequence (P54289 25-956 partner limits assumed): as the sequence (P54289 25-956 partner limits assumed) above
T2 sequence (P54289 957-1103 partner limits assumed): as the sequence (P54289 957-1103 partner limits assumed) above
How it was run: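 HEK cells stably co-expressing α1B (Cav2.2), β3 and α2δ subunits were loaded with calcium dye, preincubated with compound for 5 min, then depolarized with 50 mM KCl and read for 3 min by FDSS fluorescence. IC50 from six-point curves, normalized to KCl maximum and buffer minimum.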

[3] = high frequency (15th pulse of train, 5 Hz), read-out: QPatch at High Frequency % Inhibition
[4] = low frequency (1st pulse of train), read-out: QPatch at Low Frequency % Inhibition

SMILES: CC(C)S(=O)(=O)N1Cc2nn(-c3ccccc3OC(F)(F)F)c(-c3ccc(Cl)cc3)c2C1 [Cpd 35, 3-(4-Chlorophenyl)-5-[(1-methylethyl)sulfonyl]-2-[2-(trifluoromethoxy)phenyl]-2,4,5,6-tetrahydropyrrolo[3,4-c]pyrazole]
inhibition at 0.25 µM [1, 3]: 42%
inhibition at 0.25 µM [1, 4]: 22%
pIC50 [2]: 7.57

SMILES: COc1ccccc1-n1nc2c(c1-c1ccc(Cl)cc1)CN(S(=O)(=O)CC(F)(F)F)C2 [Cpd 36, 3-(4-Chlorophenyl)-2-(2-methoxyphenyl)-5-[(2,2,2-trifluoroethyl)sulfonyl]-2,4,5,6-tetrahydropyrrolo[3,4-c]pyrazole]
inhibition at 0.25 µM [1, 3]: 58%
inhibition at 0.25 µM [1, 4]: 42%
pIC50 [2]: 7.82

SMILES: COc1ccccc1-n1nc2c(c1-c1ccc(Cl)cc1)CN(S(=O)(=O)C1CCCCC1)C2 [Cpd 37, 3-(4-Chlorophenyl)-5-(cyclohexylsulfonyl)-2-(2-methoxyphenyl)-2,4,5,6-tetrahydropyrrolo[3,4-c]pyrazole]
inhibition at 0.25 µM [1, 3]: 73%
inhibition at 0.25 µM [1, 4]: 61%
pIC50 [2]: 7.80

SMILES: COc1ccccc1-n1nc2c(c1-c1ccc(Cl)cc1)CN(S(=O)(=O)C1CCCC1)C2 [Cpd 40, 3-(4-Chlorophenyl)-5-(cyclopentylsulfonyl)-2-(2-methoxyphenyl)-2,4,5,6-tetrahydropyrrolo[3,4-c]pyrazole]
inhibition at 0.25 µM [1, 3]: 69%
inhibition at 0.25 µM [1, 4]: 57%
pIC50 [2]: 7.92

SMILES: CCCC(C)S(=O)(=O)N1Cc2nn(-c3ccccc3OC)c(-c3ccc(Cl)cc3)c2C1 (stereo not shown) [Cpd 41, 3-(4-Chlorophenyl)-2-(2-methoxyphenyl)-5-[(1-methylbutyl)sulfonyl]-2,4,5,6-tetrahydropyrrolo[3,4-c]pyrazole]
inhibition at 0.1 µM [1, 3]: 40%
inhibition at 0.1 µM [1, 4]: 7%
inhibition at 1 µM [1, 3]: 91%
inhibition at 1 µM [1, 4]: 80%
inhibition at 0.33 µM [2]: 90%
pIC50 [2]: 7.72

SMILES: COc1ccccc1-n1nc2c(c1-c1ccc(Cl)cc1)CN(S(=O)(=O)CCNS(C)(=O)=O)C2 [Cpd 44, N-(2-{[3-(4-Chlorophenyl)-2-(2-methoxyphenyl)-2,6-dihydropyrrolo[3,4-c]pyrazol-5(4H)-yl]sulfonyl}ethyl)methanesulfonamide]
inhibition at 0.1 µM [1, 3]: -5%
inhibition at 0.1 µM [1, 4]: -2%
pIC50 [2]: 8.05

SMILES: COc1ccccc1-n1nc2c(c1-c1ccc(Cl)cc1)CN(S(=O)(=O)CCNS(=O)(=O)C(C)C)C2 [Cpd 45, N-(2-{[3-(4-Chlorophenyl)-2-(2-methoxyphenyl)-2,6-dihydropyrrolo[3,4-c]pyrazol-5(4H)-yl]sulfonyl}ethyl)propane-2-sulfonamide]
inhibition at 0.1 µM [1, 3]: 26%
inhibition at 0.1 µM [1, 4]: 26%
pIC50 [2]: 7.89

SMILES: COC(=O)CCS(=O)(=O)N1Cc2nn(-c3ccccc3OC(F)(F)F)c(-c3ccc(Cl)cc3)c2C1 [Cpd 47, Methyl 3-{[3-(4-chlorophenyl)-2-[2-(trifluoromethoxy)phenyl]-2,6-dihydropyrrolo[3,4-c]pyrazol-5(4H)-yl]sulfonyl}propanoate]
inhibition at 0.1 µM [1, 3]: 36%
inhibition at 0.1 µM [1, 4]: 8%
pIC50 [2]: 7.51

SMILES: CCOc1ccccc1-n1nc2c(c1-c1ccc(Cl)cc1)CN(S(=O)(=O)C1CCCC1)C2 [Cpd 51, 3-(4-Chlorophenyl)-5-(cyclopentylsulfonyl)-2-(2-ethoxyphenyl)-2,4,5,6-tetrahydropyrrolo[3,4-c]pyrazole]
inhibition at 0.1 µM [1, 3]: 47%
inhibition at 0.1 µM [1, 4]: 37%
pIC50 [2]: 8.30

SMILES: COc1ccccc1-n1nc2c(c1-c1ccc(Cl)cc1)CN(S(=O)(=O)N1CCCCCC1)C2 [Cpd 55, 5-(Azepan-1-ylsulfonyl)-3-(4-chlorophenyl)-2-(2-methoxyphenyl)-2,4,5,6-tetrahydropyrrolo[3,4-c]pyrazole]
inhibition at 0.1 µM [1, 3]: 54%
inhibition at 0.1 µM [1, 4]: 25%
pIC50 [2]: 8.15

SMILES: COc1ccccc1-n1nc2c(c1-c1ccc(Cl)cc1)CN(S(=O)(=O)N1CCC(C)CC1)C2 [Cpd 57, 3-(4-Chlorophenyl)-2-(2-methoxyphenyl)-5-[(4-methylpiperidin-1-yl)sulfonyl]-2,4,5,6-tetrahydropyrrolo[3,4-c]pyrazole]
inhibition at 1 µM [1, 3]: 82%
inhibition at 1 µM [1, 4]: 69%
inhibition at 0.33 µM [2]: 95%
pIC50 [2]: 8.10

SMILES: COC(=O)C1CCN(S(=O)(=O)N2Cc3nn(-c4ccccc4OC)c(-c4ccc(Cl)cc4)c3C2)CC1 [Cpd 58, Methyl 1-{[3-(4-chlorophenyl)-2-(2-methoxyphenyl)-2,6-dihydropyrrolo[3,4-c]pyrazol-5(4H)-yl]sulfonyl}piperidine-4-carboxylate]
inhibition at 0.1 µM [1, 3]: 52%
inhibition at 0.1 µM [1, 4]: 53%
pIC50 [2]: 8.30

Continued, values first:

inhibition at 0.1 µM [1, 3]: -6%
inhibition at 0.1 µM [1, 4]: -8%
pIC50 [2]: 8.30
SMILES: COc1ccccc1-n1nc2c(c1-c1ccc(Cl)cc1)CN(S(=O)(=O)CCNS(=O)(=O)N(C)C)C2 [Cpd 46, N′-(2-{[3-(4-Chlorophenyl)-2-(2-methoxyphenyl)-2,6-dihydropyrrolo[3,4-c]pyrazol-5(4H)-yl]sulfonyl}ethyl)-N,N-dimethylsulfamide]

inhibition at 0.1 µM [1, 3]: 22%
inhibition at 0.1 µM [1, 4]: 18%
pIC50 [2]: 8.70
SMILES: CCOc1ccccc1-n1nc2c(c1-c1ccc(Cl)cc1)CN(S(C)(=O)=O)C2 [Cpd 49, 3-(4-Chlorophenyl)-2-(2-ethoxyphenyl)-5-(methylsulfonyl)-2,4,5,6-tetrahydropyrrolo[3,4-c]pyrazole]

inhibition at 0.1 µM [1, 3]: 50%
inhibition at 0.1 µM [1, 4]: 42%
pIC50 [2]: 8.52
SMILES: CCOc1ccccc1-n1nc2c(c1-c1ccc(Cl)cc1)CN(S(=O)(=O)C(C)C)C2 [Cpd 50, 3-(4-Chlorophenyl)-2-(2-ethoxyphenyl)-5-[(1-methylethyl)sulfonyl]-2,4,5,6-tetrahydropyrrolo[3,4-c]pyrazole]

inhibition at 0.1 µM [1, 3]: 50%
inhibition at 0.1 µM [1, 4]: 40%
pIC50 [2]: 8.70
SMILES: CCOc1ccccc1-n1nc2c(c1-c1ccc(Cl)cc1)CN(S(=O)(=O)C1CCCCC1)C2 [Cpd 52, 3-(4-Chlorophenyl)-5-(cyclohexylsulfonyl)-2-(2-ethoxyphenyl)-2,4,5,6-tetrahydropyrrolo[3,4-c]pyrazole]

inhibition at 0.1 µM [1, 3]: 46%
inhibition at 0.1 µM [1, 4]: 36%
pIC50 [2]: 8.70
SMILES: CCOc1ccccc1-n1nc2c(c1-c1ccc(Cl)cc1)CN(S(=O)(=O)N(C)C)C2 [Cpd 54, 3-(4-Chlorophenyl)-2-(2-ethoxyphenyl)-N,N-dimethyl-2,6-dihydropyrrolo[3,4-c]pyrazole-5(4H)-sulfonamide]

inhibition at 0.1 µM [1, 3]: 36%
inhibition at 0.1 µM [1, 4]: 28%
pIC50 [2]: 8.52
SMILES: CCN(CC)S(=O)(=O)N1Cc2nn(-c3ccccc3OC)c(-c3ccc(Cl)cc3)c2C1 [Cpd 56, 3-(4-Chlorophenyl)-N,N-diethyl-2-(2-methoxyphenyl)-2,6-dihydropyrrolo[3,4-c]pyrazole-5(4H)-sulfonamide]

inhibition at 0.1 µM [1, 3]: 51%
inhibition at 0.1 µM [1, 4]: 28%
pIC50 [2]: 8.70
SMILES: COc1ccccc1-n1nc2c(c1-c1ccc(Cl)cc1)CN(S(=O)(=O)N1CCOCC1)C2 [Cpd 59, 3-(4-Chlorophenyl)-2-(2-methoxyphenyl)-5-(morpholin-4-ylsulfonyl)-2,4,5,6-tetrahydropyrrolo[3,4-c]pyrazole]
